ChEMBL document CHEMBL1926678, “Synthesis and bio-evaluation of human macrophage migration inhibitory factor inhibitor to develop anti-inflammatory agent” (Bioorg Med Chem, 2011)
Calls of active or inactive are those of the source. The rule behind the calls is not given here.

Legend:
[1] = target: Macrophage migration inhibitory factor (Mus musculus) (UniProt P34884); test: Inhibition of MIF-induced NF-kappaB nuclear translocation in mouse RAW264.7 cells at 100 uM pretreated for 30 mins before […] stimulation measured after 2 hrs by autoradiography; format: cell-based
[2] = target: T1, Macrophage migration inhibitory factor (Homo sapiens, UniProt P14174); test: Inhibition of human cloned MIF tautomerase activity expressed in Escherichia coli assessed as conversion of L-dopachrome methyl ester to indolecarboxylic acid methyl ester measured for 20 secs
T1 sequence (P14174 whole entry): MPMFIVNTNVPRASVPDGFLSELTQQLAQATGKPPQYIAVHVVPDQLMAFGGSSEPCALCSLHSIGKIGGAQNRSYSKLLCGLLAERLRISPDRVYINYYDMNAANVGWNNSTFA

[3] = target: Macrophage migration inhibitory factor (Mus musculus) (UniProt P34884); test: Inhibition of MIF-induced NF-kappaB nuclear translocation in mouse RAW264.7 cells assessed as reduction in complex formation at 40 to 80 uM pretreated for 30 mins measured after 4 hrs by electrophoretic mobility shift assay; format: cell-based
[4] = target: Macrophage migration inhibitory factor (Mus musculus) (UniProt P34884); test: Inhibition of MIF-induced NF-kappaB nuclear translocation in mouse RAW264.7 cells assessed as reduction in complex formation pretreated for 30 mins measured after 4 hrs by electrophoretic mobility shift assay; format: cell-based
[5] = target: Macrophage migration inhibitory factor (Mus musculus) (UniProt P34884); test: Inhibition of MIF-induced NF-kappaB nuclear translocation in mouse RAW264.7 cells assessed as inhibition of iNOS expression at 50 uM pretreated for 30 mins measured after 24 hrs by fluorescence spectrophotometry; format: cell-based
[6] = target: Macrophage migration inhibitory factor (Mus musculus) (UniProt P34884); test: Inhibition of MIF-induced nitric oxide production in mouse RAW264.7 cells at 50 uM pretreatment by Griess assay; format: cell-based
[7] = system: RAW264.7; test: Cytotoxicity against mouse RAW264.7 cells assessed as cell viability at 200 uM after 24 hrs by MTT assay; format: cell-based; details: raw264.7, 24 h
[8] = Cytotoxicity against rat gastric mucosal cells assessed as cell viability at 200 uM after 24 hrs by MTT assay; format: cell-based, Gastric mucosa

Sequence of Macrophage migration inhibitory factor (Mus musculus) (P34884 2-115 limits assumed): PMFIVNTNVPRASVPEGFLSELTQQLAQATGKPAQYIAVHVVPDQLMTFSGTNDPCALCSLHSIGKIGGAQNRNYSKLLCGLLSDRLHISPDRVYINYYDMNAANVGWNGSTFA

| Structure (SMILES) | IC50 [2] [µM] | further results |
| --- | --- | --- |
| COC(=O)CC1CC(c2ccc(O)cc2)=NO1 (racemic) | – | inhibition [1]: 70% |
| O=C(O)CC1CC(c2ccc(O)cc2)=NO1 (configuration not stated) | 15.2 | – |
| COC(=O)C1CC(c2ccc(OC)c(OC)c2)=NO1 (configuration not stated) | 25.2 | – |
| COC(=O)CC1CC(c2ccc(OC)cc2)=NO1 (configuration not stated) | 19.7 | – |
| COc1ccc(C2=NOC(CC(=O)O)C2)cc1 (configuration not stated) | 16.7 | – |
| COc1ccc(C2=NOC(CC(=O)Oc3cc(C)ccc3C(C)C)C2)cc1 (configuration not stated) | 55.3 | – |
| COC(=O)CC1CC(c2ccc(OC(=O)CC3CC(c4ccc(OC)cc4)=NO3)cc2)=NO1 (configuration not stated) | 37.2 | – |
| COc1ccc(C2=NOC(C(C)=O)C2)cc1OC (configuration not stated) | 35.4 | – |

Continued, in another order:

| IC50 [2] [µM] | Structure (SMILES) | further results |
| --- | --- | --- |
| 7.3 | COc1cc(C2=NOC(COc3ccc(C=O)cc3)C2)ccc1O (configuration not stated) | inhibition [3]: 100%; inhibition [4]: Dose-dependent effect; inhibition [5]: Active; inhibition [6]: Active; Activity [7]: Non-toxic; Activity [8]: Non-toxic |
| 11.2 | CCCCOC(=O)CC1CC(c2ccc(OC)cc2)=NO1 (configuration not stated) | – |
| 10.2 | COc1cc(C2=NOC(CC(=O)O)C2)ccc1O (configuration not stated) | – |
